Data taken from patent US20250275959A1, “COMPOUNDS AND METHODS OF THEIR USE” (LEXICON PHARMACEUTICALS, INC., priority 2024, published 2025).
Entries after “also recorded” stand apart in the source; their conditions may differ.

Tests used:
[1] = Murine diet-induced obesity (DIO) model, Compound A study; format: in vivo, C57BL/6J mice; conditions: DIO mice
Procedure: The effects of four representative compounds of the invention were tested in a mouse model of diet-induced obesity (DIO): • Compound A is (R)—N-(tert-butylsulfonyl)-4-(1-(5-(pyridin-3-yloxy)pyridin-2-yl)ethoxy)-3-(trifluoromethyl)benzamide; • Compound B is (R)-4-(1-(5-(cyclopropylmethoxy)pyridin-2-yl)propoxy)-N-((4-(2-(dimethylamino)ethoxy)phenyl)sulfonyl)-2,3-difluorobenzamide; • Compound C is (R)—N-((4-(2-(dimethylamino)ethoxy)piperidin-1l-yl)sulfonyl)-2,3-difluoro-4-(1-(5-(pyridin-2-yloxy)pyridin-2-yl)propoxy)benzamide; and • Compound D is (R)-2,3-difluoro-N-((4-methylpiperazin-1-yl)sulfonyl)-4-(1-(5-(pyridin-2-yloxy)pyridin-2-yl)propoxy)benzamide.
The mice used in these experiments were C57BL/6J mice fed a high-fat diet (D12492 from Research Diets) ad libitum during the study period. The vehicle and test article formulations were 10% w/v Solutol in water.
After a seven-day acclimation period, the DIO model was induced by putting the mice on a high fat diet for ten weeks. After the ten weeks, the DIO mice were equally divided into groups based on body weight, ten mice in each group: the control group (Vehicle) and Compound A at 30 mg/kg.
The animals were pre-dosed for two days prior to formal dosing (once-per-day treatment for every group). From Day 1 to Day 13, the animals in the dosing group were administered orally by gavage at 5:00 p.m. every day as well as weight and food intake were recorded daily. All animals were fasted overnight after dosing on Day 1, Day 4, Day 12 and Day 13, then the blood (retro-orbital bleed) of mice from each group was collected at 7:00 a.m. to separate out the serum on Day 2, Day 5 and Day 13 for measuring total cholesterol levels (TC), triglyceride (TG), aminotransferase alanine (ALT), aspartate aminotransferase (AST) and total bilirubin (TBil) levels. All animals were performed OGTT test (0 min, 30 min, 60 min and 120 min) and measured insulin levels (0 min and 30 min) on Day 14.
• 1. Body weight and Food Consumption: Pre-dose every day starting from Day −1 onwards. • 2. Day −1 and Day 0: Handle mice and gavage with vehicle. • 3. Day 1: Dose˜5:00 PM. Fast overnight. • 4. Day 2: Determine total cholesterol levels and triglyceride, ALT, AST, Total Bilirubin levels 7:00 AM. Resume feeding. • 5. Day 2-3: Dose˜5:00 PM. • 6. Day 4: Dose˜5:00 PM. Fast overnight. • 7. Day 5: Determine total cholesterol levels and triglyceride, ALT, AST, Total Bilirubin levels˜7:00 AM. Resume feeding. • 8. Day 5˜11: Dose˜5:00 PM. • 9. Day 12: Dose˜5:00 PM. Fast overnight. • 10. Day 13: Determine total cholesterol levels and triglyceride, ALT, AST, Total Bilirubin levels 7:00 AM. Resume feeding. • 11. Day 13: Dose˜5:00 PM. Fast overnight. • 12. Day 14: (No drug administration) Oral glucose tolerance test with glucose levels measured at Pre-dose, 30 min, 60 min and 120 min. And insulin levels at Time 0 min, 30 min after the glucose challenge.
Data was provided as mean±SD. Statistical significance was considered when the P value is less than 0.05. Results were analyzed by SPSS software. […]. T-test was used to calculate P value. […]

hACSL5 [2] = target: T1, hACSL5 (Homo sapiens (Human), UniProt Q9ULC5); test: Cell-based assay (CBA) with B12FA in hACSL5-transfected Expi293F / FlpIn TRex293 cells; conditions: hACSL5-expressing cells
Method in brief: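 hACSL5-expressing Expi293F or tetracycline-induced FlpIn TRex293 cells, serum- and glucose-starved 1 h, then treated 3 h with serially diluted compound plus 20 µM B12FA. After fixation, 630/520 nm emission ratio (ex 485 nm) gave % inhibition versus no-inhibitor and 10 µM compound/non-induced controls; IC50 by Hill fit.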
Target sequence in this assay (Q9ULC5 whole entry): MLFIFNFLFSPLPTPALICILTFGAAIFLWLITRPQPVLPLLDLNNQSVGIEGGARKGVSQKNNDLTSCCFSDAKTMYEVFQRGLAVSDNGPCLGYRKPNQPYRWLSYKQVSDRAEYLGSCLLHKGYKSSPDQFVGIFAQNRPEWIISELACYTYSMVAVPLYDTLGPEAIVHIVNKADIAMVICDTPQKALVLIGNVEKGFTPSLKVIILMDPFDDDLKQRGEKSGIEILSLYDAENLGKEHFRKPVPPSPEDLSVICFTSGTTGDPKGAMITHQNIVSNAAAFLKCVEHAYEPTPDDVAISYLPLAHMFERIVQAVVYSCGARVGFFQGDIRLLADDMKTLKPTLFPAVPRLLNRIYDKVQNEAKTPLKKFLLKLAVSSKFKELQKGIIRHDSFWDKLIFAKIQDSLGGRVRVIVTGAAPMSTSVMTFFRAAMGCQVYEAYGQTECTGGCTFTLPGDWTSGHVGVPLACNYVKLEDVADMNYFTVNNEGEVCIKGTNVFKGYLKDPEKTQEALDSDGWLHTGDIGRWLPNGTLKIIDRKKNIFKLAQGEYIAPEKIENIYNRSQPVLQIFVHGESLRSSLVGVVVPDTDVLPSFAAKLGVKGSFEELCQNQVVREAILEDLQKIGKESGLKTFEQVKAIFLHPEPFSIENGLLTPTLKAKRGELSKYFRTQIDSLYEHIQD

hACSL5 [3] = target: T1, hACSL5; test: Human ACSL5 coupled enzyme Amplex Red assay; format: biochemical; conditions: read-out: hACSL5 IC50
Method in brief: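 Amplex Red coupled readout: 1 mM ATP, 25 μM oleate and 30 μM CoA were added to compound-preincubated enzyme (20 nM, residues 33-683, insect-cell expressed, His-tagged) with coupling peroxidase and acyl-CoA oxidase at pH 7.6. Signal was read at 535/590 nm after 10 minutes at 25° C., and Hill fits yielded half-maximal and maximal inhibition.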
Target sequence in this assay (Q9ULC5 33-683): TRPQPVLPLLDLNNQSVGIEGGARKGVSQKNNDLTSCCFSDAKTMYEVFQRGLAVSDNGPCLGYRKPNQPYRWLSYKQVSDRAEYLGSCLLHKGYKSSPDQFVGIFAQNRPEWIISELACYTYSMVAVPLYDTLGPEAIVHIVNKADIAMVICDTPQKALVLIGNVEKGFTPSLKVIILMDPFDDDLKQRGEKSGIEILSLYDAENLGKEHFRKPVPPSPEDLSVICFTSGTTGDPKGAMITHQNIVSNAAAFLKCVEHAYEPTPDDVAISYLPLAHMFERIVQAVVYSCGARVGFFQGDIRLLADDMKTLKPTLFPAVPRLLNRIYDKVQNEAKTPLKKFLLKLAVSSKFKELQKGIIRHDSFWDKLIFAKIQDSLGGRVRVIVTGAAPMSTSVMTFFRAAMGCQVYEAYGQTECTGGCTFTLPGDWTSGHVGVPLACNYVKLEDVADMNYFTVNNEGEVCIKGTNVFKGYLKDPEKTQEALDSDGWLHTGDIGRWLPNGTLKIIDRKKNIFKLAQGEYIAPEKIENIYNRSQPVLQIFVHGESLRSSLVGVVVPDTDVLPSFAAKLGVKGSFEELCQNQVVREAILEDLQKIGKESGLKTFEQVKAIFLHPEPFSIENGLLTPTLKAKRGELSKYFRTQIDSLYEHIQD

Structure (SMILES) | IC50 (hACSL5 [2]) [µM] | IC50 (hACSL5 [3]) [µM] | also measured
C[C@@H](Oc1ccc(C(=O)NS(=O)(=O)C(C)(C)C)cc1C(F)(F)F)c1ccc(Oc2cccnc2)cn1 [Compound A, (R)—N-(tert-butylsulfonyl)-4-(1-(5-(pyridin-3-yloxy)pyridin-2-yl)ethoxy)-3-(trifluoromethyl)benzamide] | – | – | Body Weight (g)/Day ([1]; 30 mg/kg oral daily, Day 1): 37.9 ± 1.4 g; Body Weight (g)/Day ([1]; 30 mg/kg oral daily, Day 2): 36.6 ± 1.4 g; Body Weight (g)/Day ([1]; 30 mg/kg oral daily, Day 3): 35.8 ± 1.5 g; Body Weight (g)/Day ([1]; 30 mg/kg oral daily, Day 4): 35.3 ± 1.4 g; Body Weight (g)/Day ([1]; 30 mg/kg oral daily, Day 5): 34.3 ± 1.3 g; Body Weight (g)/Day ([1]; 30 mg/kg oral daily, Day 6): 34.2 ± 1.2 g; Body Weight (g)/Day ([1]; 30 mg/kg oral daily, Day 7): 34.0 ± 1.3 g; Body Weight (g)/Day ([1]; 30 mg/kg oral daily, Day 8): 33.9 ± 1.4 g; Body Weight (g)/Day ([1]; 30 mg/kg oral daily, Day 9): 33.5 ± 1.4 g; Body Weight (g)/Day ([1]; 30 mg/kg oral daily, Day 10): 33.4 ± 1.3 g; Body Weight (g)/Day ([1]; 30 mg/kg oral daily, Day 11): 32.9 ± 1.4 g; Body Weight (g)/Day ([1]; 30 mg/kg oral daily, Day 12): 32.8 ± 1.3 g; mean body weight versus control group ([1]; 30 mg/kg oral daily, Day −1 to Day 12): significantly lower than that of the control group from Day 8 onwards; also recorded: statistically significant effect on the mice's body weights versus control; Body Weight (g)/Day ([1]; 30 mg/kg, Day 0 (pre-dose)): 38.3 ± 1.4 g; Body Weight (g)/Day ([1]; 30 mg/kg, Day −1 (pre-dose)): 38.5 ± 1.6 g
CC[C@@H](Oc1ccc(C(=O)NS(=O)(=O)c2ccc(OCCN3CCOCC3)cc2)c(F)c1F)c1ccc(OCC2CC2)cn1 [(R)-4-(1-(5-(cyclopropylmethoxy)pyridin-2-yl)propoxy)-2,3-difluoro-N-((4-(2-morpholinoethoxy)phenyl)sulfonyl)benzamide] | > 0.5 | < 0.1 | –
CC[C@@H](Oc1ccc(C(=O)NS(=O)(=O)c2cnc(OC3CCN(C)CC3)nc2)c(F)c1F)c1ccc(OCC2CC2)cn1 [(R)-4-(1-(5-(cyclopropylmethoxy)pyridin-2-yl)propoxy)-2,3-difluoro-N-((2-((1-methylpiperidin-4-yl)oxy)pyrimidin-5-yl)sulfonyl)benzamide] | > 0.5 | < 0.1 | –
CC(Oc1ccc(C(=O)NS(=O)(=O)c2cnn(CCN(C)C)c2)c(F)c1F)c1cccc(OCC2CC2)c1 (centres unmarked) [4-(1-(3-(cyclopropylmethoxy)phenyl)ethoxy)-N-((1-(2-(dimethylamino)ethyl)-1H-pyrazol-4-yl)sulfonyl)-2,3-difluorobenzamide] | > 0.5 | 0.1 to 0.5 | –
CC[C@@H](Oc1ccc(C(=O)NS(=O)(=O)N2CCC(OC3CCN(C)CC3)CC2)c(F)c1F)c1ccc(OC2CC(OC)C2)cn1 (stereo partly drawn) [2,3-difluoro-4-((R)-1-(5-((1R,3R)-3-methoxycyclobutoxy)pyridin-2-yl)propoxy)-N-((4-((1-methylpiperidin-4-yl)oxy)piperidin-1-yl)sulfonyl)benzamide] | 0.1 to 0.5 | < 0.1 | –
CC[C@@H](Oc1ccc(C(=O)NS(=O)(=O)c2ccc(OCCN3CCCC3)nn2)c(F)c1F)c1ccc(OCC2CC2)cn1 [(R)-4-(1-(5-(cyclopropylmethoxy)pyridin-2-yl)propoxy)-2,3-difluoro-N-((6-(2-(pyrrolidin-1-yl)ethoxy)pyridazin-3-yl)sulfonyl)benzamide] | > 0.5 | < 0.1 | –
CC[C@@H](Oc1ccc(C(=O)NS(=O)(=O)c2ccc(OCc3c[nH]cn3)cc2)c(F)c1F)c1ccc(OCCOC)cn1 [(R)-N-((4-((1H-imidazol-4-yl)methoxy)phenyl)sulfonyl)-2,3-difluoro-4-(1-(5-(2-methoxyethoxy)pyridin-2-yl)propoxy)benzamide] | > 0.5 | < 0.1 | –
CCOc1ccc(C(C)Oc2ccc(C(=O)NS(=O)(=O)c3ccc(OCCn4ccnc4)cc3)c(F)c2F)nc1 (centres unmarked) [N-((4-(2-(1H-imidazol-1-yl)ethoxy)phenyl)sulfonyl)-4-(1-(5-ethoxypyridin-2-yl)ethoxy)-2,3-difluorobenzamide] | > 0.5 | 0.1 to 0.5 | –

Continued, in another order:

IC50 (hACSL5 [2]) [µM] | IC50 (hACSL5 [3]) [µM] | Structure (SMILES) | also measured
> 0.5 | 0.1 to 0.5 | CC[C@@H](Oc1ccc(C(=O)NS(=O)(=O)c2ccc(OCCN(C)C)cc2)c(F)c1F)c1ccc(OCCOC)cn1 [(R)-N-((4-(2-(dimethylamino)ethoxy)phenyl)sulfonyl)-2,3-difluoro-4-(1-(5-(2-methoxyethoxy)pyridin-2-yl)propoxy)benzamide] | –
0.1 to 0.5 | < 0.1 | CC[C@@H](Oc1ccc(C(=O)NS(=O)(=O)N2CC3CC2CC3OCCN2CCCC2)c(F)c1F)c1ccc(OCC2CC2)cn1 (stereo partly drawn) [4-((R)-1-(5-(cyclopropylmethoxy)pyridin-2-yl)propoxy)-2,3-difluoro-N-((5-(2-(pyrrolidin-1-yl)ethoxy)-2-azabicyclo[2.2.1]heptan-2-yl)sulfonyl)benzamide] | –
0.1 to 0.5 | 0.1 to 0.5 | CC[C@@H](Oc1ccc(C(=O)NS(=O)(=O)N2CCN(C)CC2)c(F)c1F)c1cc(OCC2CC2)ccn1 [(R)-4-(1-(4-(cyclopropylmethoxy)pyridin-2-yl)propoxy)-2,3-difluoro-N-((4-methylpiperazin-1-yl)sulfonyl)benzamide] | –
< 0.1 | < 0.1 | CC[C@@H](Oc1ccc(C(=O)NS(=O)(=O)N2CCN(C)CC2(C)C)c(F)c1F)c1ccc(Oc2ccccn2)cn1 [(R)-2,3-difluoro-4-(1-(5-(pyridin-2-yloxy)pyridin-2-yl)propoxy)-N-((2,2,4-trimethylpiperazin-1-yl)sulfonyl)benzamide] | –
< 0.1 | < 0.1 | CC[C@@H](Oc1ccc(C(=O)NS(=O)(=O)N2CCN(CC)CC2)cc1C(F)(F)F)c1ccc(OCC2CC2)cn1 [(R)-4-(1-(5-(cyclopropylmethoxy)pyridin-2-yl)propoxy)-N-((4-ethylpiperazin-1-yl)sulfonyl)-3-(trifluoromethyl)benzamide] | –
0.1 to 0.5 | < 0.1 | CC[C@@H](Oc1ccc(C(=O)NS(=O)(=O)N2CCC(OC3CCN(CC4CC4)CC3)CC2)c(F)c1F)c1ccc(OCC2CC2)cn1 [(R)-4-(1-(5-(cyclopropylmethoxy)pyridin-2-yl)propoxy)-N-((4-((1-(cyclopropylmethyl)piperidin-4-yl)oxy)piperidin-1-yl)sulfonyl)-2,3-difluorobenzamide] | –
